Reference: US8318778B2, “Urea glucokinase activators” (Novo Nordisk A/S, priority 2007, dated 2012)

Biological target: T1, recombinant human glucokinase (Homo sapiens, UniProt P35557)
T1 construct: N-terminal His-tag ((His)8-VEQILA . . . Q466); made in house; host or cells: E. coli
T1 sequence (P35557 17-466 isoform P35557-2): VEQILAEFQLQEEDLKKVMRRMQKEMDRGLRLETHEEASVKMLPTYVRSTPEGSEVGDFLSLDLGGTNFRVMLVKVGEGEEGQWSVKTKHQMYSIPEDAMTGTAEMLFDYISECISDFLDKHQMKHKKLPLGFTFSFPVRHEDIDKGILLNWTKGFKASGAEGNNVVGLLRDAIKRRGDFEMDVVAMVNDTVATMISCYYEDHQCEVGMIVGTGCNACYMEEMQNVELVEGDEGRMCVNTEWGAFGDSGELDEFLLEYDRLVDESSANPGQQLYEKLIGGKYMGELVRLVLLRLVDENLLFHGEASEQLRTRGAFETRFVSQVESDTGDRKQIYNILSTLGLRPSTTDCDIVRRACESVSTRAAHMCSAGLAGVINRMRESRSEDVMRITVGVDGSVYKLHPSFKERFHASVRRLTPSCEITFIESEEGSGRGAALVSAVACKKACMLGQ
Assay: Glucokinase Activity Assay (I): spectrometric assay coupled to glucose 6-phosphate dehydrogenase
Assay type: biochemical
Conditions: 15 mM glucose
Description: Glucokinase activity is assayed spectrometrically coupled to glucose 6-phosphate dehydrogenase to determine compound activation of glucokinase. The final assay contains 50 mM Hepes, pH 7.1, 50 mM KCl, 5 mM MgCl2, 2 mM dithiothreitol, 0.6 mM NADP, 1 mM ATP, 0.195 μM G-6-P dehydrogenase (from Roche, 127 671), 15 nM recombinant human glucokinase.
The purification of His-tagged human glucokinase (hGK) was performed as follows: The cell pellet from 50 ml E. coli culture was resuspended in 5 ml extraction buffer A (25 mM HEPES, pH 8.0, 1 mM MgCl2, 150 mM NaCl, 2 mM mercaptoethanol) with addition of 0.25 mg/ml lysozyme and 50 μg/ml sodium azide. […]
The compound to be tested is added into the well in final 2.5% DMSO concentration in an amount sufficient to give a desired concentration of compound, for instance 1, 5, 10, 25 or 50 μM. […] The plate is incubated at 25° C. for 5 min and kinetics is measured at 340 nm in SpectraMax every 30 seconds for 5 minutes. Results for each compound are expressed as the fold activation of the glucokinase activity compared to the activation of the glucokinase enzyme in an assay without compound after having been subtracted from a “blank”, which is without glucokinase enzyme and without compound. […]
The glucose sensitivity of the compounds are measured at a compound concentration of 10 μM and at glucose concentrations of 5 and 15 mM.

EC50: 289 nM | FA (15 mM) (fold activation of glucokinase activity vs assay without compound): 2.1
SMILES: C[C@H]1CC[C@H](N(CC(F)(F)c2ccccc2)C(=O)Nc2ncc(SCC(=O)O)s2)CC1 [Example 83, {2-[3-(2,2-Difluoro-2-phenyl-ethyl)-3-(trans-4-methyl-cyclohexyl)-ureido]-thiazol-5-ylsulfanyl}-acetic acid]
